According to patent publication US20120029071A1, “COMPOSITIONS AND METHODS FOR TREATING OR PREVENTING RADIATION INJURY” (THE JOHNS HOPKINS UNIVERSITY, priority 2008, published 2012):
“Also recorded” adds a separate entry of the source.

Experiments:
Nrf2+/+ mice = experiment: TBI induced mortality in Nrf2+/+ mice after CDDO-Me treatment; type: in vivo; details: for mortality: survival monitored for 30 days, vehicle 100% mortality
Experimental: (§1) FIG. 2 includes three graphs, which provide proof of concept studies with Nrf2 activator, showing quantitation of TBI induced Mortality in Nrf2−/− mice and Nrf2+/+ mice after CDDO-me (small molecule Nrf2 activator) or vehicle treatment. One hour and 24 hours after TBI mice (n=10/gp) mice were treated with CDDO-Me. Survival was monitored for 30 days.
(§2) To determine if pharmacological activation of Nrf2 improves survival following TBI, we treated Nrf2+/+ and Nrf2−/− with the small molecule, CDDO-Me, a potent Nrf2 activator 1 hour and 24 hours after TBI.

Nrf2−/− mice = experiment: TBI induced mortality in Nrf2-/- mice after CDDO-Me treatment; type: in vivo; details: treated 1 hour post-TBI
Experimental: as §1, §2

mice = experiment: TBI induced gastrointestinal (GI) injury: villi morphology and crypt cell proliferation (BrdU); type: in vivo; details: treatment post 1 h TBI, day 9 post TBI, vs vehicle; for mucosal injury (length of villi): histopathology
Experimental: FIGS. 3A-3D show TBI induced GI injury in Nrf2+/+ and Nrf2−/− mice after CDDO-me or vehicle treatment. One hour after TBI […] mice (n=10/gp) mice were treated with CDDO-Me. GI injury was assessed by mucosal damage by histopathalogical analysis (FIGS. 3A and 3B) and crypt cell proliferation by BrdU immunohistochemistry staining (FIGS. 3C and 3D).
To analyze the GI injury, villi morphology and proliferation of crypt cells were quantified by immunohistochemistry and BrdU labeling on day 9 post TBI.

[1] = system: hematopoietic stem cells and progenitors cell; experiment: TBI induced hematopoietic injury, bone marrow clonogenic assay; type: in vivo, mice; details: bone marrow clonogenic assay after TBI, vs vehicle
Experimental: FIG. 4 is a graph quantitating TBI induced HP injury in mice after CDDO-me or vehicle treatment as assessed by bone marrow clonogenic assay.
To assess the protective effect of CDDO-Me on hematopoietic injury, bone marrow was analyzed in a clonogenic assay.

[2] = system: GCLC, GCLm and NQO1 genes; experiment: Expression of Nrf2 regulated antioxidant genes in multiple tissues post TBI by quantitative RT-PCR; type: in vivo, mice; details: small intestine, colon, lung, liver, kidney, salivary gland and other organs
From the text: FIG. 5 is a table that quantifies Nrf2 regulated antioxidant defenses in multiple tissues of mice treated with CDDO-Me post TBI.

## COC(=O)[C@]12CCC(C)(C)C[C@H]1[C@H]1C(=O)C=C3[C@@]4(C)C=C(C#N)C(=O)C(C)(C)[C@@H]4CC[C@@]3(C)[C@]1(C)CC2 [CDDO-Me]
Nrf2+/+ mice; treated 1 hour and 24 hours after TBI, vs vehicle
  TBI induced mortality: markedly inhibited TBI induced mortality
Nrf2+/+ mice; treated 1 hour post-TBI
  mortality: 0%
Nrf2+/+ mice; treated 24 hours post-TBI
  mortality: 25%
Nrf2−/− mice
  survival following TBI: failed to improve survival
mice; BrdU immunohistochemistry
  crypt cell proliferation (BrdU staining): significantly mitigated loss of crypt cells; also recorded: marked improvement in crypt cell proliferation
mice
  mucosal injury (length of villi): significantly mitigated reduction in gastrointestinal villi
mice; listed as CDDO-me
  mucosal injury (length of villi): markedly ameliorated mucosal injury
[1]
  protection of hematopoietic stem cells and progenitors (granulocyte/macrophage colony forming cells): markedly protected hematopoietic stem cells and progenitors cell
[2]
  expression of antioxidant genes (GCLC, GCLm, NQO1): markedly upregulated antioxidant genes
